{"source": "patent US20140323416A1", "about": "“5-METHYLDIHYDROMORPHONE COMPOUNDS FOR TREATMENT OF PAIN” (priority 2013, published 2014)", "origin": "cited, not measured here", "data": [{"smiles": "CN1CC[C@]23c4c5ccc(O)c4O[C@@]2(C)C(=O)CC[C@H]3[C@H]1C5", "note": "[Metopon, metopon]", "values": [{"measurement": "bioavailability", "setting": "in vivo", "result": "low bioavailability"}, {"measurement": "emetic action", "setting": "in vivo", "result": "nearly devoid of emetic action"}, {"measurement": "analgesic effectiveness", "setting": "relative to morphine", "result": "at least double to that of morphine"}, {"measurement": "duration of action", "setting": "relative to morphine", "result": "about equal to that of morphine"}, {"measurement": "physical dependence", "setting": "relative to morphine", "result": "built up more slowly than with morphine"}, {"measurement": "potency", "setting": "relative to morphine", "result": "reduced potency relative to morphine"}, {"measurement": "tolerance", "setting": "relative to morphine", "result": "develop more slowly and to disappear more quickly"}, {"measurement": "respiratory depression", "setting": "therapeutic analgesic doses", "result": "little or no respiratory depression"}, {"measurement": "mental dullness", "setting": "therapeutic analgesic doses, relative to morphine", "result": "much less mental dullness than morphine"}]}]}
